Data taken from patent publication US11390631B1, “Benzodiazepine derivatives as RSV inhibitors” (priority 2015, dated 2022).

Columns and labels:
[1] = system: Human RSV-A (“Long” strain); assay: RSV-A assay: inhibition of cytopathic effect in Hep-2 cells, ATPlite readout; type: cell-based, Human respiratory syncytial virus (HRSV); conditions: human respiratory syncytial virus, HEp-2, 120 h, read-out: Human RSV-A (“Long” strain) EC50
Outline: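 Hep-2 cells (8,000/well) were infected with RSV-A Long at MOI 0.1 alongside duplicate 2-fold compound dilutions. After 5 days, cell viability was read by ATPlite luminescence to give EC50. CC50 came from a parallel plate without virus.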

[2] = Cytotoxicity on parallel plate without virus, ATPlite readout; type: cell-based; conditions: human, Hep-2 cells (no virus), Hep-2 cells without virus, 5-day incubation
Experimental: Following extensive parameter testing, the final assay is run as follows: Hep-2 cells are seeded into the inner 60 wells of a 96-well plate at 8,000 cells per well in a volume of 50 μL using Growth Media (DMEM without phenol red, 1% L-Glut, 1% Penn/Strep, 1% nonessential amino acids, 10% heat-inactivated FBS). 2-fold serial dilutions of control and test compounds are added to the wells in duplicate in a total volume of 25 μL. Viral stock is then added to the wells at a multiplicity of infection (MOI) of 0.1 in a volume of 25 μL, bringing the total volume of each well to 100 μL. The MOI is calculated using the PFU/mL, or TCID50 if unavailable. Each 96-well plate has a control column of 6 wells with cells and virus but no compound (negative control, max CPE), a column with cells but no compound or virus (positive control, minimum CPE), and a column with no cells or virus or compound (background plate/reagent control). The control wells with cells but no virus are given an additional 25 uL of growth media containing an equal quantity of sucrose as those wells receiving the viral stock in order to keep consistent in media and volume conditions. The outer wells of the plate are filled with 125 μL of moat media (DMEM, 1% Penn/Strep) to act as a thermal and evaporative moat around the test wells. Following a 5-day incubation period, the plates are read using ATPlite (50 uL added per well), which quantifies the amount of ATP (a measure of cell health) present in each well. Assay plates are read using the Envision luminometer. In parallel, cytotoxicity is examined on an additional 96-well plate treated in an identical manner, but substituting the 25 μL of viral stock for 25 μL of growth media. […] EC50 ranges are as follows: A<0.4 μM; B 0.4-0.8 μM; C>0.8 μM and CC50 ranges are as follows: A>50 μM; B 10-50 μM; C<10 μM.

Row | SMILES | EC50 [1] | CC50 at 5 days [2]
1 | N#Cc1ccc(-c2nnc(NC3N=C(c4ccccc4)c4ccccc4NC3=O)s2)cc1 (stereo not shown) [Example 82] | 0.4 to 0.8 µM | > 50 µM
2 | O=C1Nc2ccccc2C(c2ccccc2)=NC1Nc1nc2c(F)cccc2o1 (stereo not shown) [Example 105] | > 0.8 µM | > 50 µM
3 | O=C1Nc2ccccc2C(c2ccccc2)=NC1Nc1nnc(C2CCOCC2)o1 (stereo not shown) [Example 21] | > 0.8 µM | > 50 µM
4 | O=C1Nc2ccccc2C(c2ccccc2)=NC1Nc1nc2ccc(Cl)cc2o1 (stereo not shown) [Example 99] | > 0.8 µM | 10 to 50 µM
5 | O=C1Nc2ccccc2C(c2ccccc2)=NC1Nc1nnc([C@@H]2COCCN2)o1 (stereo partly shown) [Example 48] | > 0.8 µM | > 50 µM
6 | O=C1Nc2ccccc2C(c2ccccc2)=NC1Nc1cc(Oc2ccccc2)ncn1 (stereo not shown) [Example 94] | > 0.8 µM | 10 to 50 µM
7 | O=C1Nc2ccccc2C(c2ccccc2)=NC1Nc1nnc(-c2cccc(C(F)(F)F)c2)o1 (stereo not shown) [Example 29] | > 0.8 µM | > 50 µM
8 | Cn1ccnc1-c1nnc(NC2N=C(c3ccccc3)c3ccccc3NC2=O)o1 (stereo not shown) [Example 67] | > 0.8 µM | > 50 µM
9 | Cn1nccc1-c1nnc(NC2N=C(c3ccccc3)c3ccccc3NC2=O)o1 (stereo not shown) [Example 65] | > 0.8 µM | > 50 µM
10 | O=C1Nc2ccccc2C(c2ccccc2)=NC1Nc1nnc([C@H]2COCCN2)o1 (stereo partly shown) [Example 49] | > 0.8 µM | > 50 µM
11 | O=C1Nc2ccccc2C(c2ccccc2)=NC1Nc1nnc(-c2ccccn2)o1 (stereo not shown) [Example 11] | 0.4 to 0.8 µM | > 50 µM
12 | O=C1Nc2ccccc2C(c2ccccc2)=NC1Nc1nnc(-c2ccncc2)o1 (stereo not shown) [Example 61] | 0.4 to 0.8 µM | > 50 µM
13 | O=C1Nc2ccccc2C(c2ccccc2)=NC1Nc1nnc(-c2ccc(F)cn2)o1 (stereo not shown) [Example 23] | > 0.8 µM | > 50 µM
14 | O=C1Nc2ccccc2C(c2ccccc2)=NC1Nc1nnc(-c2cncs2)o1 (stereo not shown) [Example 76] | > 0.8 µM | > 50 µM
15 | O=C1Nc2ccccc2C(c2ccccc2)=NC1Nc1nnc(-c2ccc(Cl)cc2)o1 (stereo not shown) [Example 13] | < 0.4 µM | > 50 µM
16 | O=C1Nc2ccccc2C(c2ccccc2)=NC1Nc1nnc(C2CCNCC2)o1 (stereo not shown) [Example 45] | > 0.8 µM | > 50 µM
17 | O=C1Nc2ccccc2C(c2ccccc2)=NC1Nc1nnc(-c2ncccn2)o1 (stereo not shown) [Example 59] | > 0.8 µM | > 50 µM
18 | CN1CCC(c2nnc(NC3N=C(c4ccccc4)c4ccccc4NC3=O)o2)CC1 (stereo not shown) [Example 46] | > 0.8 µM | > 50 µM
19 | N#Cc1cc(-c2nnc(NC3N=C(c4ccccc4)c4ccccc4NC3=O)o2)ccc1F (stereo not shown) [Example 32] | 0.4 to 0.8 µM | > 50 µM
20 | Cc1cc(-c2nnc(NC3N=C(c4ccccc4)c4ccccc4NC3=O)o2)ccc1C#N (stereo not shown) [Example 34] | 0.4 to 0.8 µM | > 50 µM

Row | SMILES | EC50 [1] | CC50 at 5 days [2]
21 | O=C1Nc2ccccc2C(c2ccccc2)=N[C@H]1Nc1nnc(-c2ccco2)o1 [Example 10b] | > 0.8 µM | < 10 µM
22 | O=C1Nc2ccccc2C(c2ccccc2)=NC1Nc1nc2ccccc2s1 (stereo not shown) [Example 101] | > 0.8 µM | 10 to 50 µM
23 | Cc1ccc(-c2nnc(NC3N=C(c4ccccc4)c4ccccc4NC3=O)o2)o1 (stereo not shown) [Example 71] | > 0.8 µM | > 50 µM
24 | O=C1Nc2ccccc2C(c2ccccc2)=NC1Nc1nnc(-c2nccs2)o1 (stereo not shown) [Example 69] | > 0.8 µM | > 50 µM
25 | COCc1cccc(-c2nnc(NC3N=C(c4ccccc4)c4ccccc4NC3=O)o2)n1 (stereo not shown) [Example 64] | > 0.8 µM | > 50 µM
26 | O=C1Nc2ccccc2C(c2ccccc2)=NC1Nc1nnc(-c2ccc(F)cc2)s1 (stereo not shown) [Example 80] | > 0.8 µM | > 50 µM
27 | O=C1Nc2ccccc2C(c2ccccc2)=NC1Nc1nnc(-c2ccccc2F)o1 (stereo not shown) [Example 6] | > 0.8 µM | > 50 µM
28 | O=C1Nc2ccccc2C(c2ccccc2)=NC1Nc1nnc(-c2cnco2)o1 (stereo not shown) [Example 75] | > 0.8 µM | > 50 µM
29 | O=C1Nc2ccccc2C(c2ccccc2)=NC1Nc1nc(-c2ccccc2)ns1 (stereo not shown) [Example 87] | > 0.8 µM | 10 to 50 µM
30 | O=C1Nc2ccccc2C(c2ccccc2)=NC1Nc1nnc(-c2cncnc2)o1 (stereo not shown) [Example 60] | > 0.8 µM | > 50 µM
31 | O=C1Nc2ccccc2C(c2ccccc2)=NC1Nc1nnc(-c2ccc3ccccc3c2)o1 (stereo not shown) [Example 16] | 0.4 to 0.8 µM | > 50 µM
32 | O=C1Nc2ccccc2C(c2ccccc2)=NC1Nc1nnc(-c2cnccn2)o1 (stereo not shown) [Example 58] | > 0.8 µM | > 50 µM
33 | COCc1ccc(-c2nnc(NC3N=C(c4ccccc4)c4ccccc4NC3=O)o2)o1 (stereo not shown) [Example 72] | > 0.8 µM | > 50 µM
34 | O=C1Nc2ccccc2C(c2ccccc2)=NC1Nc1nnc(-c2ccc(C(F)(F)F)cn2)o1 (stereo not shown) [Example 25] | > 0.8 µM | > 50 µM
35 | CN(C)Cc1ccc(-c2nnc(NC3N=C(c4ccccc4)c4ccccc4NC3=O)o2)o1 (stereo not shown) [Example 73] | > 0.8 µM | > 50 µM
36 | O=C1Nc2ccccc2C(c2ccccc2)=NC1Nc1nnco1 (stereo not shown) [Example 79] | > 0.8 µM | > 50 µM
37 | COCCOc1cccc(-c2nnc(NC3N=C(c4ccccc4)c4ccccc4NC3=O)o2)c1 (stereo not shown) [Example 1] | > 0.8 µM | > 50 µM
38 | O=C1Nc2ccccc2C(c2ccccc2)=NC1Nc1nnc(-c2ccnc(F)c2)o1 (stereo not shown) [Example 55] | < 0.4 µM | > 50 µM
39 | O=C1Nc2ccccc2C(c2ccccc2)=NC1Nc1nnc(-c2cc[nH]c(=O)c2)o1 (stereo not shown) [Example 40] | > 0.8 µM | > 50 µM
40 | O=C1Nc2ccccc2C(c2ccccc2)=NC1Nc1nnc(-c2ccccc2)s1 (stereo not shown) [Example 81] | > 0.8 µM | > 50 µM

Row | SMILES | EC50 [1] | CC50 at 5 days [2]
41 | O=C1Nc2ccccc2C(c2ccccc2)=NC1Nc1cc(-c2ccccc2)ncn1 (stereo not shown) [Example 92] | > 0.8 µM | 10 to 50 µM
42 | O=C1Nc2ccccc2C(c2ccccc2)=NC1Nc1nnc(C2CC2)o1 (stereo not shown) [Example 5] | > 0.8 µM | > 50 µM
43 | COc1cccc(-c2nnc(NC3N=C(c4ccccc4)c4ccccc4NC3=O)o2)n1 (stereo not shown) [Example 52] | < 0.4 µM | > 50 µM
44 | COc1ccc(-c2nnc(NC3N=C(c4ccccc4)c4ccccc4NC3=O)o2)cc1 (stereo not shown) [Example 8] | > 0.8 µM | > 50 µM
45 | O=C1Nc2ccccc2C(c2ccccc2)=NC1Nc1cccn(Cc2ccccc2)c1=O (stereo not shown) [Example 97] | > 0.8 µM | > 50 µM
46 | COc1cc(-c2nnc(NC3N=C(c4ccccc4)c4ccccc4NC3=O)o2)ccc1F (stereo not shown) [Example 14] | < 0.4 µM | 10 to 50 µM
47 | O=C1Nc2ccccc2C(c2ccccc2)=NC1Nc1nc(-c2ccccc2)no1 (stereo not shown) [Example 89] | > 0.8 µM | 10 to 50 µM
48 | COc1ccc(-c2nnc(NC3N=C(c4ccccc4)c4ccccc4NC3=O)o2)nc1 (stereo not shown) [Example 51] | 0.4 to 0.8 µM | > 50 µM
49 | COc1ccnc(-c2nnc(NC3N=C(c4ccccc4)c4ccccc4NC3=O)o2)c1 (stereo not shown) [Example 57] | > 0.8 µM | > 50 µM
50 | O=C1Nc2ccccc2C(c2ccccc2)=NC1Nc1nnc(-c2cc3cccnc3s2)o1 (stereo not shown) [Example 43] | > 0.8 µM | > 50 µM
51 | O=C1Nc2ccccc2C(c2ccccc2)=NC1Nc1nc(-c2ccccc2)cs1 (stereo not shown) [Example 90] | > 0.8 µM | < 10 µM
52 | O=C1Nc2ccccc2C(c2ccccc2)=N[C@H]1Nc1nnc(-c2ccc(F)cc2)o1 [Example 7b] | > 0.8 µM | 10 to 50 µM
53 | COc1ccccc1-c1nnc(NC2N=C(c3ccccc3)c3ccccc3NC2=O)o1 (stereo not shown) [Example 9] | > 0.8 µM | > 50 µM
54 | CC(=O)N1CCC(c2nnc(NC3N=C(c4ccccc4)c4ccccc4NC3=O)o2)CC1 (stereo not shown) [Example 47] | > 0.8 µM | > 50 µM
55 | O=C1Nc2ccccc2C(c2ccccc2)=NC1Nc1nnc(-c2cccc(F)c2)o1 (stereo not shown) [Example 3] | > 0.8 µM | > 50 µM
56 | O=C1Nc2ccccc2C(c2ccccc2)=NC1Nc1ccnc(-c2ccccc2)n1 (stereo not shown) [Example 96] | > 0.8 µM | 10 to 50 µM
57 | Cn1cnc(-c2nnc(NC3N=C(c4ccccc4)c4ccccc4NC3=O)o2)c1 (stereo not shown) [Example 68] | > 0.8 µM | > 50 µM
58 | O=C1Nc2ccccc2C(c2ccccc2)=NC1Nc1ncc(-c2ccccc2)o1 (stereo not shown) [Example 84] | > 0.8 µM | 10 to 50 µM
59 | O=C1Nc2ccccc2C(c2ccccc2)=NC1Nc1nnc(Cc2ccccc2)o1 (stereo not shown) [Example 22] | > 0.8 µM | > 50 µM
